PubChem BioAssay AID216 (DTP/NCI, 2004)
“And” between values parts separate entries of the source, which are not always exact repeats. Equal values may be shown once. Toxic doses and inconclusive results are not listed.

Test system: BDF1 mice, P288 leukemia ip, survival T/C
Experiment: NCI In Vivo Anticancer Drug Screen. Data for tumor model P288 Lymphocytic Leukemia (intraperitoneal) in B6D2F1 (BDF1) mice
Conditions: endpoint: survival time, mean or median, higher = longer survival
Experimental: The antitumor activity of compounds was measured in mice bearing transplantable tumors. Survival or tumor size were measured and the results are expressed as the measurement made in the treated group (T) divided by the measurement made in the vehicle treated control group (C). The tumor model used in this assay is P288 Lymphocytic Leukemia (intraperitoneal) in B6D2F1 (BDF1) mice

[1] = dose: 0.31 mg/kg/injection, schedule: Q01DX Z (ip), vehicle: carboxymethylcellulose (CMC)
[2] = dose: 0.63 mg/kg/injection, schedule: Q01DX Z (ip), vehicle: carboxymethylcellulose (CMC)
[3] = dose: 1.25 mg/kg/injection, schedule: Q01DX Z (ip), vehicle: carboxymethylcellulose (CMC)
[4] = dose: 2.5 mg/kg/injection, schedule: Q01DX Z (ip), vehicle: carboxymethylcellulose (CMC)
[5] = dose: 5.0 mg/kg/injection, schedule: Q01DX Z (ip), vehicle: carboxymethylcellulose (CMC)
[6] = dose: 8.0 mg/kg/injection, schedule: Q01DX010 (ip), vehicle: saline
[7] = dose: 16.0 mg/kg/injection, schedule: Q01DX010 (ip), vehicle: saline

## CCN(CC)c1ccc2cc3ccc(=[N+](CC)CC)cc-3oc2c1
dose: 0.08 mg/kg/injection, schedule: Q01DX Z (ip), vehicle: carboxymethylcellulose (CMC)
  T/C: 110 % of control
dose: 0.16 mg/kg/injection, schedule: Q01DX Z (ip), vehicle: carboxymethylcellulose (CMC)
  T/C: 90 % of control
[1]
  T/C: 108 % of control
dose: 0.32 mg/kg/injection, schedule: Q01DX Z (ip), vehicle: carboxymethylcellulose (CMC)
  T/C: 96 % of control
[2]
  T/C: 100 % of control
[3]
  T/C: 106 % of control
[4]
  T/C: 102 % of control
[5]
  T/C: 115 % of control and 117 % of control

## O=C(Nc1ccc(NC(=O)Nc2cccc(C3=NCCN3)c2)cc1)Nc1cccc(C2=NCCN2)c1
dose: 60.0 mg/kg/injection, schedule: Q01DX010 (ip), vehicle: saline
  T/C: 163 % of control and 168 % of control
dose: 120.0 mg/kg/injection, schedule: Q01DX010 (ip), vehicle: saline
  T/C: 173 % of control and 210 % of control
dose: 240.0 mg/kg/injection, schedule: Q01DX010 (ip), vehicle: saline
  T/C: 221 % of control
dose: 480.0 mg/kg/injection, schedule: Q01DX010 (ip), vehicle: saline
  T/C: 152 % of control

## CCCCNc1ncnc2c1cnn2C
dose: 0.22 mg/kg/injection, schedule: Q01DX Z (ip), vehicle: carboxymethylcellulose (CMC)
  T/C: 90 % of control
dose: 0.45 mg/kg/injection, schedule: Q01DX Z (ip), vehicle: carboxymethylcellulose (CMC)
  T/C: 90 % of control
dose: 0.9 mg/kg/injection, schedule: Q01DX Z (ip), vehicle: carboxymethylcellulose (CMC)
  T/C: 90 % of control

## C[C@]12CCC(=O)C=C1CC[C@H]1[C@@H]3CC[C@](O)(C(=O)CO)[C@@]3(C)C[C@H](O)[C@@]12F
dose: 0.45 mg/kg/injection, schedule: Q01DX Z (sc), vehicle: steriod suspending solution
  T/C: 97 % of control
dose: 0.9 mg/kg/injection, schedule: Q01DX Z (sc), vehicle: steriod suspending solution
  T/C: 98 % of control
dose: 1.8 mg/kg/injection, schedule: Q01DX Z (sc), vehicle: steriod suspending solution
  T/C: 110 % of control and 97 % of control
dose: 3.75 mg/kg/injection, schedule: Q01DX Z (sc), vehicle: steriod suspending solution
  T/C: 106 % of control
dose: 7.5 mg/kg/injection, schedule: Q01DX Z (sc), vehicle: steriod suspending solution
  T/C: 108 % of control
dose: 15.0 mg/kg/injection, schedule: Q01DX Z (sc), vehicle: steriod suspending solution
  T/C: 106 % of control
dose: 30.0 mg/kg/injection, schedule: Q01DX Z (sc), vehicle: steriod suspending solution
  T/C: 108 % of control
dose: 60.0 mg/kg/injection, schedule: Q01DX Z (sc), vehicle: steriod suspending solution
  T/C: 102 % of control
dose: 120.0 mg/kg/injection, schedule: Q01DX Z (sc), vehicle: steriod suspending solution
  T/C: 105 % of control

## CC(CCC(C)OS(C)(=O)=O)OS(C)(=O)=O (stereo not drawn)
[2]
  T/C: 100 % of control
[3]
  T/C: 88 % of control
dose: 2.0 mg/kg/injection, schedule: Q01DX010 (ip), vehicle: saline
  T/C: 90 % of control
[4]
  T/C: 105 % of control
dose: 4.0 mg/kg/injection, schedule: Q01DX010 (ip), vehicle: saline
  T/C: 90 % of control
[5]
  T/C: 114 % of control
[6]
  T/C: 100 % of control
dose: 10.0 mg/kg/injection, schedule: Q01DX Z (ip), vehicle: carboxymethylcellulose (CMC)
  T/C: 107 % of control
[7]
  T/C: 104 % of control and 105 % of control and 90 % of control
dose: 20.0 mg/kg/injection, schedule: Q01DX Z (ip), vehicle: carboxymethylcellulose (CMC)
  T/C: 90 % of control

## CCCNc1ncnc2[nH]ncc12
dose: 0.31 mg/kg/injection, schedule: Q01DX Z (ip), vehicle: water
  T/C: 94 % of control
dose: 0.63 mg/kg/injection, schedule: Q01DX Z (ip), vehicle: water
  T/C: 90 % of control
dose: 2.5 mg/kg/injection, schedule: Q01DX Z (ip), vehicle: water
  T/C: 108 % of control and 114 % of control
dose: 5.0 mg/kg/injection, schedule: Q01DX Z (ip), vehicle: water
  T/C: 112 % of control
dose: 10.0 mg/kg/injection, schedule: Q01DX Z (ip), vehicle: water
  T/C: 106 % of control and 91 % of control
dose: 20.0 mg/kg/injection, schedule: Q01DX Z (ip), vehicle: water
  T/C: 108 % of control
dose: 40.0 mg/kg/injection, schedule: Q01DX Z (ip), vehicle: water
  T/C: 103 % of control

## c1ccc(CNc2ncnc3[nH]ncc23)cc1
dose: 1.95 mg/kg/injection, schedule: Q01DX Z (ip), vehicle: carboxymethylcellulose (CMC)
  T/C: 91 % of control
dose: 3.9 mg/kg/injection, schedule: Q01DX Z (ip), vehicle: carboxymethylcellulose (CMC)
  T/C: 97 % of control
dose: 7.8 mg/kg/injection, schedule: Q01DX Z (ip), vehicle: carboxymethylcellulose (CMC)
  T/C: 90 % of control
[6]
  T/C: 121 % of control and 93 % of control
[7]
  T/C: 112 % of control and 114 % of control
dose: 32.0 mg/kg/injection, schedule: Q01DX010 (ip), vehicle: saline
  T/C: 118 % of control

## O=NN(CCCl)C(=O)NCCCl
dose: 1.0 mg/kg/injection, schedule: Q01DX Z (ip), vehicle: saline
  T/C: 121 % of control
dose: 2.0 mg/kg/injection, schedule: Q01DX Z (ip), vehicle: saline
  T/C: 117 % of control
dose: 6.25 mg/kg/injection, schedule: Q01DX010 (ip), vehicle: saline
  T/C: 193 % of control and 428 % of control
dose: 12.5 mg/kg/injection, schedule: Q01DX010 (ip), vehicle: saline
  T/C: 150 % of control and 192 % of control
dose: 16.0 mg/kg/injection, schedule: Q01DX Z (ip), vehicle: saline
  T/C: 203 % of control
dose: 25.0 mg/kg/injection, schedule: Q01DX010 (ip), vehicle: saline
  T/C: 106 % of control and 121 % of control
dose: 32.0 mg/kg/injection, schedule: Q01DX Z (ip), vehicle: saline
  T/C: 263 % of control
dose: 50.0 mg/kg/injection, schedule: Q01DX010 (ip), vehicle: saline
  T/C: 87 % of control
dose: 64.0 mg/kg/injection, schedule: Q01DX Z (ip), vehicle: saline
  T/C: 101 % of control

## C[C@H](N)C(=O)N[C@@H]1[C@H]2C(=C(O)C[C@@H](O)[C@@H]2O)C(=O)O[C@@H]1C
dose: 150.0 mg/kg/injection, schedule: Q01DX010 (ip), vehicle: saline
  T/C: 112 % of control
dose: 300.0 mg/kg/injection, schedule: Q01DX010 (ip), vehicle: saline
  T/C: 156 % of control
dose: 600.0 mg/kg/injection, schedule: Q01DX010 (ip), vehicle: saline
  T/C: 212 % of control

## O=c1cnn(C2OC(CO)C(O)C2O)c(=O)[nH]1 (stereo not drawn)
dose: 15.62 mg/kg/injection, schedule: Q01DX Z (ip), vehicle: water
  T/C: 101 % of control
dose: 31.25 mg/kg/injection, schedule: Q01DX Z (ip), vehicle: water
  T/C: 101 % of control
dose: 62.5 mg/kg/injection, schedule: Q01DX Z (ip), vehicle: water
  T/C: 104 % of control
dose: 125.0 mg/kg/injection, schedule: Q01DX Z (ip), vehicle: water
  T/C: 113 % of control and 95 % of control
dose: 200.0 mg/kg/injection, schedule: Q01DX010 (ip), vehicle: saline
  T/C: 111 % of control and 112 % of control
dose: 250.0 mg/kg/injection, schedule: Q01DX Z (ip), vehicle: water
  T/C: 103 % of control and 123 % of control
dose: 400.0 mg/kg/injection, schedule: Q01DX010 (ip), vehicle: saline
  T/C: 118 % of control
dose: 500.0 mg/kg/injection, schedule: Q01DX Z (ip), vehicle: water
  T/C: 94 % of control
dose: 800.0 mg/kg/injection, schedule: Q01DX010 (ip), vehicle: saline
  T/C: 122 % of control
dose: 1000.0 mg/kg/injection, schedule: Q01DX Z (ip), vehicle: water
  T/C: 103 % of control
dose: 1600.0 mg/kg/injection, schedule: Q01DX010 (ip), vehicle: saline
  T/C: 112 % of control and 94 % of control

## OCC1OC(n2cnc3c(Cl)ncnc32)C(O)C1O (stereo not drawn)
dose: 62.5 mg/kg/injection, schedule: Q01DX Z (ip), vehicle: carboxymethylcellulose (CMC)
  T/C: 104 % of control
dose: 125.0 mg/kg/injection, schedule: Q01DX Z (ip), vehicle: carboxymethylcellulose (CMC)
  T/C: 101 % of control
dose: 250.0 mg/kg/injection, schedule: Q01DX Z (ip), vehicle: carboxymethylcellulose (CMC)
  T/C: 92 % of control
dose: 500.0 mg/kg/injection, schedule: Q01DX Z (ip), vehicle: carboxymethylcellulose (CMC)
  T/C: 106 % of control

## Nc1ncnc2c1ccn2C1OC(CO)C(O)C1O (stereo not drawn)
[1]
  T/C: 108 % of control and 92 % of control
[2]
  T/C: 112 % of control and 93 % of control
[3]
  T/C: 90 % of control
[4]
  T/C: 106 % of control
